Experimental findings from PMC12040169 (PLOS Biology, 2025) are described below.

The series is described as follows: in vitro. The following applies: human, hela cells, % viability.

As usually defined, the viability is a read-out of living cells in per cent, often relative to untreated cells. With `Cc1cc(C(=O)N2Cc3ccccc3C2)n[nH]1` [CBK200328], the viability at 28.5 h, 10 µM stood at 100%.

Regarding `O=C(O)C1CCCN1S(=O)(=O)c1ccc([N+](=O)[O-])cc1` (stereo not drawn) [CBK261424], the viability at 28.5 h, 10 µM was found to be 89.7%.

In the case of `CC(C)C(NS(=O)(=O)c1ccc(Oc2ccccc2Cl)cc1)C(=O)O` (stereo not drawn) [CBK267195], the viability at 28.5 h, 10 µM is 100%.

As for `NS(=O)(=O)c1ccc(NC(=S)N2CCN(CCc3ccccc3)CC2)cc1` [CBK268133], the viability at 28.5 h, 10 µM was found to be 97.6%.

For `CCOC(=O)c1sc(-c2ccccc2)nc1C` [CBK074204], the viability at 28.5 h, 10 µM turned out to be 87.5%.

With `COc1ccc([C@@]23CC[C@@H](NC(=O)N(C)c4ccc(Cl)cc4)C[C@@H]2N(C)CC3)cc1OC` [CBK045682T], the viability at 28.5 h, 10 µM is 90.8%.

Regarding `CC#CC1CCCC2N(c3ccccc3)CCN12` (stereo not drawn) [CBK028191], the viability at 28.5 h, 10 µM is 119%.

As to `Cc1cc(C(=O)N2CCN(C(=O)c3cn(Cc4ccc(S(C)(=O)=O)cc4)nn3)CC2)n(C)n1` [CBK160824T], the viability at 28.5 h, 10 µM was 110%.

`O=C(CN1CCN(Cc2ccc3c(c2)OCO3)CC1)Nc1ccc(Cl)cc1C(=O)c1ccccc1` [CBK264241]: the viability at 28.5 h, 10 µM was 103%.

Regarding `Cc1cc(/C=N/NC(=O)c2ccc(CN3CCOCC3)cc2)c(C)n1-c1ccccc1` [CBK263329], the viability at 28.5 h, 10 µM was determined as 100%.

Consider `O=C(C[n+]1ccc(CCSCc2ccc3c4c(cccc24)CC3)cc1)c1ccc2c3c(cccc13)CC2` [CBK260881B], for which the viability at 28.5 h, 10 µM is 96.4%.

For the compound `Cc1ccc(S(=O)(=O)Nc2c(C(=O)N3CCOCC3)[nH]c3ccccc23)cc1` [CBK050066], the viability at 28.5 h, 10 µM worked out at 88.7%.

As to `OCC1OC(n2cnc3c(Oc4ccccc4)ncnc32)CC1O` (stereo not drawn) [CBK201181], the viability at 28.5 h, 10 µM came to 91.5%.

On to `O=C(/C=C/c1ccc(Cl)cc1Cl)NC(=S)Nc1ccccc1F` [CBK264332], for which the viability at 28.5 h, 10 µM came to 108%.

Regarding `COc1ccc(C(C)C)cc1-c1nccnc1N1CCCN(C)CC1` [CBK036677], the viability at 28.5 h, 10 µM was 110%.

On to `COc1cc2c(cc1OC)CN(C(=O)c1ccccn1)CC2` [CBK115864], for which the viability at 28.5 h, 10 µM was 98.5%.

Take `COc1ccc(-c2noc([C@@H]3C[C@@H](O)CN3Cc3cccc(C#N)c3)n2)cc1` [CBK288843]: the viability at 28.5 h, 10 µM was found to be 92.4%.

As to `N#Cc1c(NC(=O)CSc2nc3ccccc3s2)oc(-c2ccccc2)c1-c1ccccc1` [CBK269019], the viability at 28.5 h, 10 µM is 97%.

As to `O=C(NCc1cccs1)c1ccccc1Nc1cccc(C(F)(F)F)c1` [CBK149557], the viability at 28.5 h, 10 µM amounted to 104%.

In the case of `O=C(CCNS(=O)(=O)c1ccccc1)N1CCC(Cc2ccccc2)CC1` [CBK270091], the viability at 28.5 h, 10 µM is 84.9%.

As for `CC(C)(C)OC(=O)COc1cc2oc(=O)cc(-c3ccccc3)c2cc1Cl` [CBK263729], the viability at 28.5 h, 10 µM worked out at 87.6%.

For the compound `Cn1c(COc2ccc(Cl)cc2Cl)nnc1SCC(=O)N1c2ccccc2SC2C=CC=CC21` (stereo not drawn) [CBK268359], the viability at 28.5 h, 10 µM was 103%.

With `O=C(Nc1ccc2oc(-c3cccnc3)nc2c1)c1ccc(-c2ccccc2OC(F)(F)F)o1` [CBK263872], the viability at 28.5 h, 10 µM was found to be 86.5%.

For `COCCNc1nc(-c2ccsc2)ccc1C(=O)N1CCN(C)CC1` [CBK105948], the viability at 28.5 h, 10 µM was 112%.

For the compound `Cc1c(Cl)ccc2c(C(=O)Nc3ccc(S(=O)(=O)N4CCOCC4)cc3)cc(-c3cccnc3)nc12` [CBK267718], the viability at 28.5 h, 10 µM was determined as 85.5%.

As for `CCCn1c(SCC(=O)NCCN2C(=O)CSC2=O)n[nH]c1=O` [CBK296976], the viability at 28.5 h, 10 µM turned out to be 89.2%.

With `C=CCn1c(SCC(=O)Nc2nc3ccc(OCC)cc3s2)nc2cc(C(=O)O)ccc2c1=O` [CBK297520], the viability at 28.5 h, 10 µM came out at 113%.

Turning to `CCOC(=O)c1c(NC(=O)CSc2nncn2C)sc(C)c1C` [CBK267970], the viability at 28.5 h, 10 µM was found to be 89.8%.

In the case of `CS(=O)(=O)Nc1nccnc1OC1CCN(CCc2ccccc2)CC1` [CBK084279], the viability at 28.5 h, 10 µM was found to be 98.3%.

Turning to `CN(C)CCn1c(=O)oc2ccc(NC(=O)C3CCCO3)cc21` (stereo not drawn) [CBK304913], the viability at 28.5 h, 10 µM was 93.9%.

For the compound `CCc1cccc(NC(=O)CCc2ccccc2)c1` [CBK263637], the viability at 28.5 h, 10 µM was found to be 112%.

As for `Cc1cccc(-c2ncc(NC(=O)C3CC3)nc2-c2cccnc2)c1` [CBK037134], the viability at 28.5 h, 10 µM was 98.9%.

In the case of `Cc1c(C(=O)N2CCCC(c3cnccn3)C2)oc2c(F)cccc12` (stereo not drawn) [CBK285302], the viability at 28.5 h, 10 µM was determined as 96.3%.

Consider `O=c1cc(Nc2ccc3c(c2)OCO3)[nH]c(=O)n1-c1ccc(Cl)cc1` [CBK287507], for which the viability at 28.5 h, 10 µM amounted to 86.6%.

Regarding `Cc1ccc(NC(=O)CCC(=O)N2CCC3(CC2)CC(=O)c2ccccc2O3)cc1` [CBK156524], the viability at 28.5 h, 10 µM is 94.1%.

With `Cc1ccc(C(=O)C(C)OC(=O)c2cc(-c3ccccc3)nc3ccccc23)cc1` (stereo not drawn) [CBK264067], the viability at 28.5 h, 10 µM stood at 99.8%.

Turning to `CCOc1ccc(NC(=O)c2c[nH]c(=O)n(-c3ccc(F)cc3)c2=O)cc1` [CBK287553], the viability at 28.5 h, 10 µM was 107%.

Turning to `Cc1nn(Cc2nnc(-c3cccs3)o2)c(C)c1Br` [CBK010809], the viability at 28.5 h, 10 µM worked out at 87.7%.

On to `CC1CC1C(=O)N1CCC(c2nc3ccccc3cc2N)CC1` (stereo not drawn) [CBK285090], for which the viability at 28.5 h, 10 µM was 98.8%.

Turning to `CCc1nc2ccc(C(=O)Nc3cccc(OC)c3)cn2c1N(C)Cc1cccs1` [CBK145522], the viability at 28.5 h, 10 µM amounted to 96.7%.

Turning to `CSc1nnc(-c2cccc(C)c2)n1CC1CCCCC1` [CBK085418], the viability at 28.5 h, 10 µM was 100%.

Take `O=C(O)CCNC(=O)/C(=C/c1ccc(Cl)cc1)NC(=O)c1ccccc1` [CBK300484]: the viability at 28.5 h, 10 µM was found to be 86.5%.

For the compound `Nc1cc2ccccc2nc1C1CCN(C(=O)C2CC=CCC2)CC1` (stereo not drawn) [CBK285016], the viability at 28.5 h, 10 µM was 88.9%.

Consider `Cc1cccc(C(=O)NC(CC(C)C)c2nnc3n2CCNCC3)c1O` (stereo not drawn) [CBK307191], for which the viability at 28.5 h, 10 µM turned out to be 99.6%.

As to `CC1CCN(S(=O)(=O)c2ccc(Oc3ccc([N+](=O)[O-])cc3)cc2)CC1` [CBK261774], the viability at 28.5 h, 10 µM came out at 98%.

Take `CCCSc1nc2cc(C(=O)OC)ccc2c(=O)n1CC1CCCO1` (stereo not drawn) [CBK306031]: the viability at 28.5 h, 10 µM came to 91%.

Consider `O=C(CSc1nnc(-c2ccc(F)cc2)n1-c1ccccc1)Nc1cccc2ccccc12` [CBK267592], for which the viability at 28.5 h, 10 µM worked out at 89.8%.

For `CCOC(=O)CC(C)NS(=O)(=O)c1ccc(OC(F)(F)F)cc1` (stereo not drawn) [CBK044954], the viability at 28.5 h, 10 µM stood at 104%.

On to `CCc1cc2c(=O)c(-c3nc4ccccc4s3)coc2c(CN2CCCCC2)c1O` [CBK262284], for which the viability at 28.5 h, 10 µM came out at 86.1%.

On to `Cc1cc(NC(=O)CSc2nnc3ccc(-c4ccccc4)nn23)no1` [CBK287679], for which the viability at 28.5 h, 10 µM turned out to be 108%.

Turning to `CCN1CC2(CCCN(Cc3nnc(-c4cccnc4)o3)C2)CCC1=O` (stereo not drawn) [CBK306881], the viability at 28.5 h, 10 µM was 86.4%.

Turning to `CC(NC(=O)OC(C)(C)C)c1nnc(SCC(=O)N(C)C)o1` (stereo not drawn) [CBK269932], the viability at 28.5 h, 10 µM worked out at 88.3%.

For the compound `Cn1nc(C2CCCCC2)cc1[C@H]1CN2CC[C@H]1C[C@@H]2CNC(=O)c1ccco1` [CBK289106], the viability at 28.5 h, 10 µM was found to be 95.3%.

Turning to `Cc1sc(NC(=S)NC(=O)C2CCCCC2)c(C(N)=O)c1C` [CBK266273], the viability at 28.5 h, 10 µM came to 97.3%.

For `COCCNC(=O)c1ccc(-c2ccc3c(c2)OCO3)nc1N(C)C` [CBK106050], the viability at 28.5 h, 10 µM came to 101%.

As for `COc1cc(C(=O)Nc2ccc(-c3nc4ncccc4o3)cc2)ccc1OCc1ccc(Cl)cc1` [CBK033914], the viability at 28.5 h, 10 µM was determined as 92.7%.

As to `O=C(CC1S/C(=N/N=C/c2ccc(-c3ccc(Br)cc3)o2)NC1=O)Nc1ccccc1` (stereo not drawn) [CBK264499], the viability at 28.5 h, 10 µM worked out at 106%.

As to `COc1cccc(C2(O)CCC3CN(C(C)=O)CC32)c1` (stereo not drawn) [CBK283222], the viability at 28.5 h, 10 µM is 95.8%.

As for `CCc1nn(CCC(C)O)c(=O)c2cc3sc(C)cc3n12` (stereo not drawn) [CBK282869], the viability at 28.5 h, 10 µM is 89.1%.

With `COc1ccc(OCc2ncc(C(C)(C)C)o2)c(C(C)=O)c1` [CBK305079], the viability at 28.5 h, 10 µM was determined as 115%.

As to `Cc1cnn(C)c1CN1CCC(C(N)=O)(N2CCCCC2)CC1` [CBK304400], the viability at 28.5 h, 10 µM is 89.4%.

For the compound `CC(C)NC(=O)CCn1c(-c2ccncc2)cc2cccnc21` [CBK284931], the viability at 28.5 h, 10 µM was 111%.

As to `O=S(=O)(c1cnc(Cl)c(Br)c1)N1CCC2(CC1)OCCO2` [CBK044070], the viability at 28.5 h, 10 µM was 97.5%.

Take `CC(=O)Nc1ccc(S(=O)(=O)Nc2ccc(-c3cn4cccnc4n3)cc2)cc1` [CBK268671]: the viability at 28.5 h, 10 µM stood at 105%.

In the case of `Cc1ccc(C)c(NC(=O)CCc2c(C)nn3cnnc3c2C)c1` [CBK304358], the viability at 28.5 h, 10 µM stood at 90%.

`c1ccc2c(CSc3ncn[nH]3)cccc2c1` [CBK025610]: the viability at 28.5 h, 10 µM was 114%.

For the compound `COc1ccc(CCNC(=O)c2cnoc2-c2ccc(C)cc2)cc1` [CBK153731], the viability at 28.5 h, 10 µM was determined as 119%.

As to `COc1cccc(C2C(C(=O)c3ccc(Cl)cc3)=C(O)C(=O)N2CCCN2CCOCC2)c1` (stereo not drawn) [CBK264865], the viability at 28.5 h, 10 µM is 105%.

Regarding `O=S(=O)(Nc1nccnc1Cl)c1ccccc1Cl` [CBK149698], the viability at 28.5 h, 10 µM was determined as 84.3%.

Consider `CSc1cccc(CN2C[C@H]3CN(C(=O)C4CCC4)C[C@@]3(C(=O)O)C2)c1` [CBK307645], for which the viability at 28.5 h, 10 µM amounted to 88.4%.

For the compound `CCOC(=O)c1c(NC(=S)NCc2ccccn2)sc2c1CCCCC2` [CBK266954], the viability at 28.5 h, 10 µM amounted to 106%.

Regarding `c1csc(-c2nc3[nH]c4ccccc4n3n2)c1` [CBK264118], the viability at 28.5 h, 10 µM was 102%.

Regarding `CC(C)(C)C(=O)Nc1ccc(-c2ccc(NC(=O)C(C)(C)C)c(C(=O)O)c2)cc1C(=O)O` [CBK261392], the viability at 28.5 h, 10 µM came out at 108%.

For `CC(NC(=O)/C(=C\c1ccccc1)NC(=O)c1ccc(Br)o1)C(=O)O` (stereo not drawn) [CBK264934], the viability at 28.5 h, 10 µM turned out to be 107%.

Consider `Cc1nc(CNC(=O)NC2CCCN(c3ncccn3)C2)cs1` (stereo not drawn) [CBK305640], for which the viability at 28.5 h, 10 µM was 95.3%.

Regarding `Cc1ccnc(SCc2cc(=O)c3c(=O)n(-c4ccccc4)[nH]c3[nH]2)n1` [CBK269875], the viability at 28.5 h, 10 µM came to 110%.

Regarding `Cc1[nH]c2c(Cl)cc(Cl)cc2c1CCN` [CBK070893], the viability at 28.5 h, 10 µM (bulk resorufin, single well) amounted to 103%.

`CCn1nc2c(c1C(=O)Nc1cccc(CCc3ccncc3)c1)CCCC2` [CBK285561]: the viability at 28.5 h, 10 µM was found to be 87.5%.
